Earlier results as cited in PubChem BioAssay AID1259410 (Chemical Carcinogenesis Research Information System (CCRIS), 2018).

Tested on: rodent tumor promotion studies, tumor incidence
Test: CCRIS tumor promotion studies
Conditions: Species: RAT

CC/C=C/C=C/C=C/C=C/C=C/OC[C@@H](O)CO
outcome (Carcinogen: N-METHYL-N-NITROSOUREA, 684-93-5, Doses [Carcinogen]: 2 NG IN 0.5 ML WATER 3/WK FOR 3 WK, Doses [Promoter]: 0, 400 NG IN 0.5 ML BUFFER 2/WK FOR 24 WK BEGINNING 5 WK POST CARCINOGEN TREATMENT (STUDY DURATION: 32 WK), Route [Carcinogen]: INTRARECTAL, Route [Promoter]: INTRARECTAL, Strain/Sex: F344/FEMALE): colon: carcinoma

O=P(O)(O)OC1C(OP(=O)(O)O)C(OP(=O)(O)O)C(OP(=O)(O)O)C(OP(=O)(O)O)C1OP(=O)(O)O (stereo not drawn)
outcome (Carcinogen: N-BUTYL-N-(4-HYDROXYBUTYL)NITROSAMINE, 3817-11-6, Doses [Carcinogen]: 0.05% IN DRINKING WATER FOR 4 WK, Doses [Promoter]: 0, 2% IN DIET BEGINNING POST CARCINOGEN TREATMENT AND CONTINUING FOR 32 WK (STUDY DURATION: 36 WK), Route [Carcinogen]: ORAL, Route [Promoter]: ORAL, Strain/Sex: F344/MALE): urinary bladder: papilloma, carcinoma

Cc1c(N(C)CS(=O)(=O)O)c(=O)n(-c2ccccc2)n1C
outcome (Carcinogen: DIETHYLNITROSAMINE, 55-18-5, Doses [Carcinogen]: 0.O1% IN DRINKING WATER FOR 2 WK, Doses [Promoter]: 0.4% IN DRINKING WATER 5 D/ WK FOR 72 WK BEGINNING 1 WK POST CARCINOGEN (STUDY DURATION: 83 WK), Route [Carcinogen]: ORAL, Route [Promoter]: ORAL, Strain/Sex: F344/MALE): liver neoplastic nodule, hepatocellular carcinoma ; kidney: adenoma
